Measurements taken from article PMC8217813, “Bridging Computational Vaccinology and Vaccine Development Through Systematic Identification, Characterization, and Downselection of Conserved and Variable Circumsporozoite Protein CD4 T Cell Epitopes From Diverse Plasmodium falciparum Strains” (Frontiers in Immunology, 2021).

System: CD4 T cells co-cultured with autologous DCs from PBMCs
Assay type: cell-based, human
Conditions: positive = Stimulation Index ≥1.5-fold above baseline, 5 µg/mL peptide; for Percentage of donors demonstrating IFN-γ responses, DR1 / Percentage of donors demonstrating IL-2 responses, DR1 / Percentage of donors demonstrating IL-4 responses, DR1 / Percentage of donors demonstrating IL-10 responses, DR1 / Percentage of donors demonstrating TNF-α responses, DR1: DR1 donors N=5; for Percentage of donors demonstrating IFN-γ responses, DR1 / Percentage of donors demonstrating IFN-γ responses, DR3 / Percentage of donors demonstrating IFN-γ responses, DR4 / Percentage of donors demonstrating IFN-γ responses, DR7 / Percentage of donors demonstrating IFN-γ responses, DR8 / Percentage of donors demonstrating IFN-γ responses, DR9 / Percentage of donors demonstrating IFN-γ responses, DR11 / Percentage of donors demonstrating IFN-γ responses, DR13 / Percentage of donors demonstrating IFN-γ responses, DR15: ICCS after 14-day co-culture; for Percentage of donors demonstrating IL-2 responses, DR1 / Percentage of donors demonstrating IL-4 responses, DR1 / Percentage of donors demonstrating IL-10 responses, DR1 / Percentage of donors demonstrating TNF-α responses, DR1 / Percentage of donors demonstrating IL-2 responses, DR3 / Percentage of donors demonstrating IL-4 responses, DR3 / Percentage of donors demonstrating IL-10 responses, DR3 / Percentage of donors demonstrating TNF-α responses, DR3 / Percentage of donors demonstrating IL-2 responses, DR4 / Percentage of donors demonstrating IL-4 responses, DR4 / Percentage of donors demonstrating IL-10 responses, DR4 / Percentage of donors demonstrating TNF-α responses, DR4 / Percentage of donors demonstrating IL-2 responses, DR7 / Percentage of donors demonstrating IL-4 responses, DR7 / Percentage of donors demonstrating IL-10 responses, DR7 / Percentage of donors demonstrating TNF-α responses, DR7 / Percentage of donors demonstrating IL-2 responses, DR8 / Percentage of donors demonstrating IL-4 responses, DR8 / Percentage of donors demonstrating IL-10 responses, DR8 / Percentage of donors demonstrating TNF-α responses, DR8 / Percentage of donors demonstrating IL-2 responses, DR9 / Percentage of donors demonstrating IL-4 responses, DR9 / Percentage of donors demonstrating IL-10 responses, DR9 / Percentage of donors demonstrating TNF-α responses, DR9 / Percentage of donors demonstrating IL-2 responses, DR11 / Percentage of donors demonstrating IL-4 responses, DR11 / Percentage of donors demonstrating IL-10 responses, DR11 / Percentage of donors demonstrating TNF-α responses, DR11 / Percentage of donors demonstrating IL-2 responses, DR13 / Percentage of donors demonstrating IL-4 responses, DR13 / Percentage of donors demonstrating IL-10 responses, DR13 / Percentage of donors demonstrating TNF-α responses, DR13 / Percentage of donors demonstrating IL-2 responses, DR15 / Percentage of donors demonstrating IL-4 responses, DR15 / Percentage of donors demonstrating IL-10 responses, DR15 / Percentage of donors demonstrating TNF-α responses, DR15: ICCS; for Percentage of donors demonstrating IFN-γ responses, DR3 / Percentage of donors demonstrating IL-2 responses, DR3 / Percentage of donors demonstrating IL-4 responses, DR3 / Percentage of donors demonstrating IL-10 responses, DR3 / Percentage of donors demonstrating TNF-α responses, DR3: DR3 donors N=6; for Percentage of donors demonstrating IFN-γ responses, DR4 / Percentage of donors demonstrating IL-2 responses, DR4 / Percentage of donors demonstrating IL-4 responses, DR4 / Percentage of donors demonstrating IL-10 responses, DR4 / Percentage of donors demonstrating TNF-α responses, DR4: DR4 donors N=10; for Percentage of donors demonstrating IFN-γ responses, DR7 / Percentage of donors demonstrating IL-2 responses, DR7 / Percentage of donors demonstrating IL-4 responses, DR7 / Percentage of donors demonstrating IL-10 responses, DR7 / Percentage of donors demonstrating TNF-α responses, DR7: DR7 donors N=4; for Percentage of donors demonstrating IFN-γ responses, DR8 / Percentage of donors demonstrating IL-2 responses, DR8 / Percentage of donors demonstrating IL-4 responses, DR8 / Percentage of donors demonstrating IL-10 responses, DR8 / Percentage of donors demonstrating TNF-α responses, DR8: DR8 donors N=4; for Percentage of donors demonstrating IFN-γ responses, DR9 / Percentage of donors demonstrating IL-2 responses, DR9 / Percentage of donors demonstrating IL-4 responses, DR9 / Percentage of donors demonstrating IL-10 responses, DR9 / Percentage of donors demonstrating TNF-α responses, DR9: DR9 donors N=4; for Percentage of donors demonstrating IFN-γ responses, DR11 / Percentage of donors demonstrating IL-2 responses, DR11 / Percentage of donors demonstrating IL-4 responses, DR11 / Percentage of donors demonstrating IL-10 responses, DR11 / Percentage of donors demonstrating TNF-α responses, DR11: DR11 donors N=4; for Percentage of donors demonstrating IFN-γ responses, DR13 / Percentage of donors demonstrating IL-2 responses, DR13 / Percentage of donors demonstrating IL-4 responses, DR13 / Percentage of donors demonstrating IL-10 responses, DR13 / Percentage of donors demonstrating TNF-α responses, DR13: DR13 donors N=7; for Percentage of donors demonstrating IFN-γ responses, DR15 / Percentage of donors demonstrating IL-2 responses, DR15 / Percentage of donors demonstrating IL-4 responses, DR15 / Percentage of donors demonstrating IL-10 responses, DR15 / Percentage of donors demonstrating TNF-α responses, DR15: DR15 donors N=7

Sequence: DQHIEQYLKKIQNSISTEWS [ICS3]
- Percentage of donors demonstrating IFN-γ responses, DR1: 80%
- Percentage of donors demonstrating IL-2 responses, DR1: 80%
- Percentage of donors demonstrating IL-4 responses, DR1: 0%
- Percentage of donors demonstrating IL-10 responses, DR1: 20%
- Percentage of donors demonstrating TNF-α responses, DR1: 60%
- Percentage of donors demonstrating IFN-γ responses, DR3: 33%
- Percentage of donors demonstrating IL-2 responses, DR3: 0%
- Percentage of donors demonstrating IL-4 responses, DR3: 17%
- Percentage of donors demonstrating IL-10 responses, DR3: 17%
- Percentage of donors demonstrating TNF-α responses, DR3: 0%
- Percentage of donors demonstrating IFN-γ responses, DR4: 30%
- Percentage of donors demonstrating IL-2 responses, DR4: 40%
- Percentage of donors demonstrating IL-4 responses, DR4: 10%
- Percentage of donors demonstrating IL-10 responses, DR4: 0%
- Percentage of donors demonstrating TNF-α responses, DR4: 40%
- Percentage of donors demonstrating IFN-γ responses, DR7: 75%
- Percentage of donors demonstrating IL-2 responses, DR7: 50%
- Percentage of donors demonstrating IL-4 responses, DR7: 0%
- Percentage of donors demonstrating IL-10 responses, DR7: 0%
- Percentage of donors demonstrating TNF-α responses, DR7: 50%
- Percentage of donors demonstrating IFN-γ responses, DR8: 0%
- Percentage of donors demonstrating IL-2 responses, DR8: 0%
- Percentage of donors demonstrating IL-4 responses, DR8: 0%
- Percentage of donors demonstrating IL-10 responses, DR8: 0%
- Percentage of donors demonstrating TNF-α responses, DR8: 25%
- Percentage of donors demonstrating IFN-γ responses, DR9: 0%
- Percentage of donors demonstrating IL-2 responses, DR9: 0%
- Percentage of donors demonstrating IL-4 responses, DR9: 0%
- Percentage of donors demonstrating IL-10 responses, DR9: 0%
- Percentage of donors demonstrating TNF-α responses, DR9: 25%
- Percentage of donors demonstrating IFN-γ responses, DR11: 25%
- Percentage of donors demonstrating IL-2 responses, DR11: 25%
- Percentage of donors demonstrating IL-4 responses, DR11: 0%
- Percentage of donors demonstrating IL-10 responses, DR11: 0%
- Percentage of donors demonstrating TNF-α responses, DR11: 50%
- Percentage of donors demonstrating IFN-γ responses, DR13: 0%
- Percentage of donors demonstrating IL-2 responses, DR13: 0%
- Percentage of donors demonstrating IL-4 responses, DR13: 0%
- Percentage of donors demonstrating IL-10 responses, DR13: 0%
- Percentage of donors demonstrating TNF-α responses, DR13: 14%
- Percentage of donors demonstrating IFN-γ responses, DR15: 14%
- Percentage of donors demonstrating IL-2 responses, DR15: 14%
- Percentage of donors demonstrating IL-4 responses, DR15: 0%
- Percentage of donors demonstrating IL-10 responses, DR15: 14%
- Percentage of donors demonstrating TNF-α responses, DR15: 29%

Sequence: DQHIEKYLKTIKNSLSTEWS [ICS10]
- Percentage of donors demonstrating IFN-γ responses, DR1: 20%
- Percentage of donors demonstrating IL-2 responses, DR1: 0%
- Percentage of donors demonstrating IL-4 responses, DR1: 0%
- Percentage of donors demonstrating IL-10 responses, DR1: 0%
- Percentage of donors demonstrating TNF-α responses, DR1: 0%
- Percentage of donors demonstrating IFN-γ responses, DR3: 33%
- Percentage of donors demonstrating IL-2 responses, DR3: 17%
- Percentage of donors demonstrating IL-4 responses, DR3: 17%
- Percentage of donors demonstrating IL-10 responses, DR3: 0%
- Percentage of donors demonstrating TNF-α responses, DR3: 17%
- Percentage of donors demonstrating IFN-γ responses, DR4: 40%
- Percentage of donors demonstrating IL-2 responses, DR4: 30%
- Percentage of donors demonstrating IL-4 responses, DR4: 0%
- Percentage of donors demonstrating IL-10 responses, DR4: 10%
- Percentage of donors demonstrating TNF-α responses, DR4: 10%
- Percentage of donors demonstrating IFN-γ responses, DR7: 75%
- Percentage of donors demonstrating IL-2 responses, DR7: 25%
- Percentage of donors demonstrating IL-4 responses, DR7: 0%
- Percentage of donors demonstrating IL-10 responses, DR7: 25%
- Percentage of donors demonstrating TNF-α responses, DR7: 25%
- Percentage of donors demonstrating IFN-γ responses, DR8: 0%
- Percentage of donors demonstrating IL-2 responses, DR8: 0%
- Percentage of donors demonstrating IL-4 responses, DR8: 0%
- Percentage of donors demonstrating IL-10 responses, DR8: 0%
- Percentage of donors demonstrating TNF-α responses, DR8: 0%
- Percentage of donors demonstrating IFN-γ responses, DR9: 25%
- Percentage of donors demonstrating IL-2 responses, DR9: 25%
- Percentage of donors demonstrating IL-4 responses, DR9: 0%
- Percentage of donors demonstrating IL-10 responses, DR9: 0%
- Percentage of donors demonstrating TNF-α responses, DR9: 25%
- Percentage of donors demonstrating IFN-γ responses, DR11: 50%
- Percentage of donors demonstrating IL-2 responses, DR11: 50%
- Percentage of donors demonstrating IL-4 responses, DR11: 0%
- Percentage of donors demonstrating IL-10 responses, DR11: 0%
- Percentage of donors demonstrating TNF-α responses, DR11: 25%
- Percentage of donors demonstrating IFN-γ responses, DR13: 29%
- Percentage of donors demonstrating IL-2 responses, DR13: 14%
- Percentage of donors demonstrating IL-4 responses, DR13: 0%
- Percentage of donors demonstrating IL-10 responses, DR13: 0%
- Percentage of donors demonstrating TNF-α responses, DR13: 14%
- Percentage of donors demonstrating IFN-γ responses, DR15: 57%
- Percentage of donors demonstrating IL-2 responses, DR15: 14%
- Percentage of donors demonstrating IL-4 responses, DR15: 14%
- Percentage of donors demonstrating IL-10 responses, DR15: 0%
- Percentage of donors demonstrating TNF-α responses, DR15: 14%
